According to US7642245B2, “Antibacterial compounds having a (pyrrole carboxamide)-(benzamide)-(imidazole carboxamide) motif” (Oscient Pharmaceuticals Corporation, priority 2002, dated 2010):

Columns and labels:
[1] = tested on: E. coli ATCC 25922; test: MIC, NCCLS broth microdilution; assay type: cell-based, Escherichia coli; settings: G = E. coli ATCC 25922
Summary of the method: (§1)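 Minimal inhibitory concentration determined by NCCLS broth microdilution in microtiter plates per documents M7-A4, M11-A4 and M27-T. S. aureus ATCC 27660 is a methicillin-resistant strain. The antifungal test on C. albicans followed the method recommended in the Manual of Clinical Microbiology (1995).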

[2] = tested on: E. faecalis ATCC 29212; test: MIC, NCCLS broth microdilution; assay type: cell-based, Enterococcus faecalis; settings: C = E. faecalis ATCC 29212
Summary of the method: as §1

[3] = tested on: S. pneumoniae ATCC 49619; test: MIC, NCCLS broth microdilution; assay type: cell-based, Streptococcus pneumoniae; settings: E = S. pneumoniae ATCC 49619
Summary of the method: as §1

[4] = tested on: B. cereus ATCC 11778; test: MIC, NCCLS broth microdilution; assay type: cell-based, Bacillus cereus; settings: D = B. cereus ATCC 11778
Summary of the method: (§2)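 Broth microdilution MIC per NCCLS M7-A4 and M11-A4 for bacteria (MRSA strain for S. aureus ATCC 27660); antifungal MIC per NCCLS M27-T with the Murray 1995 Manual of Clinical Microbiology method. MIC taken as lowest inhibitory concentration.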

[5] = tested on: C. albicans ATCC 38247; test: MIC, antifungal assay; assay type: cell-based, Candida albicans; settings: F = C. albicans ATCC 38247
Summary of the method: as §2

[6] = tested on: M. catarrhalis (ATCC 25238); test: MIC, NCCLS broth microdilution; assay type: cell-based, Moraxella (now Branhamella) catarrhalis; settings: H = M. catarrhalis (ATCC 25238)
Summary of the method: as §2

[7] = tested on: S. aureus ATCC 13709; test: MIC, NCCLS broth microdilution; assay type: cell-based, Staphylococcus aureus; settings: A = S. aureus ATCC 13709 (MSSA)
Summary of the method: as §1

[8] = tested on: S. aureus ATCC 27660; test: MIC, NCCLS broth microdilution; assay type: cell-based, Staphylococcus aureus; settings: B = S. aureus ATCC 27660 (MRSA)
Summary of the method: as §2

Cn1cc(NC(=O)c2cc3ccccc3cn2)cc1C(=O)Nc1ccc(C(=O)Nc2cn(C)c(C(=O)NCCN3CCN(C(=O)CNC(=O)OC(C)(C)C)CC3)n2)cc1 [Compound A-64]
Minimum Inhibitory Concentration (MIC) [1]: >32 µg/mL
Minimum Inhibitory Concentration (MIC) [2]: +++ (MIC ≦ 4 μg/mL)
Minimum Inhibitory Concentration (MIC) [3]: +++ (MIC ≦ 4 μg/mL)
Minimum Inhibitory Concentration (MIC) [4]: +++ (MIC ≦ 4 μg/mL)
Minimum Inhibitory Concentration (MIC) [5]: >32 µg/mL
Minimum Inhibitory Concentration (MIC) [6]: ++ (4 < MIC < 12 μg/mL)
Minimum Inhibitory Concentration (MIC) [7]: +++ (MIC ≦ 4 μg/mL)
Minimum Inhibitory Concentration (MIC) [8]: +++ (MIC ≦ 4 μg/mL)

Cn1cc(NC(=O)c2cc3ccccc3cn2)cc1C(=O)Nc1ccc(C(=O)Nc2cn(C)c(C(=O)NCCN3CCN(C(=O)CN)CC3)n2)cc1 [Compound A-65]
Minimum Inhibitory Concentration (MIC) [1]: >32 µg/mL
Minimum Inhibitory Concentration (MIC) [2]: +++ (MIC ≦ 4 μg/mL)
Minimum Inhibitory Concentration (MIC) [3]: +++ (MIC ≦ 4 μg/mL)
Minimum Inhibitory Concentration (MIC) [4]: +++ (MIC ≦ 4 μg/mL)
Minimum Inhibitory Concentration (MIC) [5]: ++ (4 < MIC < 12 μg/mL)
Minimum Inhibitory Concentration (MIC) [6]: +++ (MIC ≦ 4 μg/mL)
Minimum Inhibitory Concentration (MIC) [7]: +++ (MIC ≦ 4 μg/mL)
Minimum Inhibitory Concentration (MIC) [8]: +++ (MIC ≦ 4 μg/mL)

Cn1cc(NC(=O)c2cc3ccccc3cn2)cc1C(=O)Nc1ccc(C(=O)Nc2cn(C)c(C(=O)NCCN3CCC(OC(=O)CNC(=O)OC(C)(C)C)CC3)n2)cc1 [Compound A-66]
Minimum Inhibitory Concentration (MIC) [1]: >32 µg/mL
Minimum Inhibitory Concentration (MIC) [2]: +++ (MIC ≦ 4 μg/mL)
Minimum Inhibitory Concentration (MIC) [3]: +++ (MIC ≦ 4 μg/mL)
Minimum Inhibitory Concentration (MIC) [4]: +++ (MIC ≦ 4 μg/mL)
Minimum Inhibitory Concentration (MIC) [5]: >32 µg/mL
Minimum Inhibitory Concentration (MIC) [6]: +++ (MIC ≦ 4 μg/mL)
Minimum Inhibitory Concentration (MIC) [7]: +++ (MIC ≦ 4 μg/mL)
Minimum Inhibitory Concentration (MIC) [8]: +++ (MIC ≦ 4 μg/mL)

Cn1cc(NC(=O)c2cc3ccccc3cn2)cc1C(=O)Nc1ccc(C(=O)Nc2cn(C)c(C(=O)NCCN3CCC(OC(=O)CN)CC3)n2)cc1 [Compound A-67]
Minimum Inhibitory Concentration (MIC) [1]: + (12 ≦ MIC ≦ 32 μg/mL)
Minimum Inhibitory Concentration (MIC) [2]: +++ (MIC ≦ 4 μg/mL)
Minimum Inhibitory Concentration (MIC) [3]: +++ (MIC ≦ 4 μg/mL)
Minimum Inhibitory Concentration (MIC) [4]: +++ (MIC ≦ 4 μg/mL)
Minimum Inhibitory Concentration (MIC) [5]: ++ (4 < MIC < 12 μg/mL)
Minimum Inhibitory Concentration (MIC) [6]: +++ (MIC ≦ 4 μg/mL)
Minimum Inhibitory Concentration (MIC) [7]: +++ (MIC ≦ 4 μg/mL)
Minimum Inhibitory Concentration (MIC) [8]: +++ (MIC ≦ 4 μg/mL)

Cn1cc(NC(=O)c2cc3ccccc3cn2)cc1C(=O)Nc1ccc(C(=O)Nc2cn(C)c(C(=O)NCCN3CCC(OC(=O)CNS(=O)(=O)O)CC3)n2)cc1 [Compound A-68]
Minimum Inhibitory Concentration (MIC) [1]: >32 µg/mL
Minimum Inhibitory Concentration (MIC) [2]: +++ (MIC ≦ 4 μg/mL)
Minimum Inhibitory Concentration (MIC) [3]: + (12 ≦ MIC ≦ 32 μg/mL)
Minimum Inhibitory Concentration (MIC) [4]: +++ (MIC ≦ 4 μg/mL)
Minimum Inhibitory Concentration (MIC) [5]: >32 µg/mL
Minimum Inhibitory Concentration (MIC) [6]: >32 µg/mL
Minimum Inhibitory Concentration (MIC) [7]: +++ (MIC ≦ 4 μg/mL)
Minimum Inhibitory Concentration (MIC) [8]: +++ (MIC ≦ 4 μg/mL)
